In patent publication US8148372B2 (AstraZeneca AB, priority 2008, dated 2012):
pEC50, pIC50: −log10 of the molar value. Converted amounts (≈) assume the structure as drawn.

How the values were obtained:
[1] = Solubility in pH 7.4 phosphate buffer; format: physicochemical; conditions: aqueous buffer, thermodynamic from solid, equilibration 24 h at 25° C., HPLC-UV and LC-MSMS
Description: Solubility was determined in pH 7.4 phosphate buffer after equilibration for 24 h at 25° C. and HPLC-UV and LC-MSMS were used for quantitation.

[2] = target: T1, human mGluR2 (Homo sapiens, UniProt Q14416); experiment: [35S]-GTPγS binding assay, membranes from CHO cells stably expressing human mGluR2; format: biochemical; conditions: for Emax: 0.5 h, Emax relative to the maximum glutamate effect, 1 μM glutamate, read-out: Hu GTPgS Median Top Effect; for pEC50: allosteric activator activity in presence of 1 μM glutamate, CHO membranes, human mGluR2, read-out: Hu GTPgS EC50
T1 construct: expressed in transfected cells; host or cells: CHO cells, stably transfected; membranes
Description: A [^35S]-GTPγS binding assay was used to functionally assay mGluR2 receptor activation. The allosteric activator activity of compounds at the human mGluR2 receptor were measured using a [^35S]-GTPγS binding assay with membranes prepared from CHO cells that stably express the human mGluR2. The assay is based upon the principle that agonists bind to G-protein coupled receptors to stimulate GDP-GTP exchange at the G-protein. Since [^35S]-GTPγS is a non-hydrolyzable GTP analog, it can be used to provide an index of GDP-GTP exchange and, thus, receptor activation. The GTPγS binding assay therefore provides a quantitative measure of receptor activation.
Membranes were prepared from CHO cells stably transfected with human mGluR2. Membranes (30 μg protein) were incubated with test compound (3 nM to 300 μM) for 15 minutes at room temperature prior to the addition of 1 μM glutamate, and incubated for 30 min at 30° C. in 500 μl assay buffer (20 mM HEPES, 100 mM NaCl, 10 mM MgCl2), containing 30 μM GDP and 0.1 nM [^35S]-GTPγS (1250 Ci/mmol). Reactions were carried out in triplicate in 2 ml polypropylene 96-well plates. Reactions were terminated by vacuum filtration using a Packard 96-well harvester and Unifilter-96, GF/B filter microplates. The filter plates were washed 4×1.5 ml with ice-cold wash buffer (10 mM sodium phosphate buffer, pH 7.4). The filter plates were dried and 35 μl of scintillation fluid (Microscint 20) was added to each well. The amount of radioactivity bound was determined by counting plates on the Packard TopCount. Data was analyzed using GraphPad Prism, and EC50 and Emax values (relative to the maximum glutamate effect) were calculated using non-linear regression.

[3] = target: hERG ion channel (Homo sapiens, UniProt Q12809); experiment: hERG activity (process of Bridgland-Taylor et al.); format: cell-based
Description: hERG activity was assessed using the process described by Bridgland-Taylor, M. H., et al, J. Pharm. Tox. Methods 54 (2006) 189-199.

Sequence of hERG ion channel (Q12809 whole entry): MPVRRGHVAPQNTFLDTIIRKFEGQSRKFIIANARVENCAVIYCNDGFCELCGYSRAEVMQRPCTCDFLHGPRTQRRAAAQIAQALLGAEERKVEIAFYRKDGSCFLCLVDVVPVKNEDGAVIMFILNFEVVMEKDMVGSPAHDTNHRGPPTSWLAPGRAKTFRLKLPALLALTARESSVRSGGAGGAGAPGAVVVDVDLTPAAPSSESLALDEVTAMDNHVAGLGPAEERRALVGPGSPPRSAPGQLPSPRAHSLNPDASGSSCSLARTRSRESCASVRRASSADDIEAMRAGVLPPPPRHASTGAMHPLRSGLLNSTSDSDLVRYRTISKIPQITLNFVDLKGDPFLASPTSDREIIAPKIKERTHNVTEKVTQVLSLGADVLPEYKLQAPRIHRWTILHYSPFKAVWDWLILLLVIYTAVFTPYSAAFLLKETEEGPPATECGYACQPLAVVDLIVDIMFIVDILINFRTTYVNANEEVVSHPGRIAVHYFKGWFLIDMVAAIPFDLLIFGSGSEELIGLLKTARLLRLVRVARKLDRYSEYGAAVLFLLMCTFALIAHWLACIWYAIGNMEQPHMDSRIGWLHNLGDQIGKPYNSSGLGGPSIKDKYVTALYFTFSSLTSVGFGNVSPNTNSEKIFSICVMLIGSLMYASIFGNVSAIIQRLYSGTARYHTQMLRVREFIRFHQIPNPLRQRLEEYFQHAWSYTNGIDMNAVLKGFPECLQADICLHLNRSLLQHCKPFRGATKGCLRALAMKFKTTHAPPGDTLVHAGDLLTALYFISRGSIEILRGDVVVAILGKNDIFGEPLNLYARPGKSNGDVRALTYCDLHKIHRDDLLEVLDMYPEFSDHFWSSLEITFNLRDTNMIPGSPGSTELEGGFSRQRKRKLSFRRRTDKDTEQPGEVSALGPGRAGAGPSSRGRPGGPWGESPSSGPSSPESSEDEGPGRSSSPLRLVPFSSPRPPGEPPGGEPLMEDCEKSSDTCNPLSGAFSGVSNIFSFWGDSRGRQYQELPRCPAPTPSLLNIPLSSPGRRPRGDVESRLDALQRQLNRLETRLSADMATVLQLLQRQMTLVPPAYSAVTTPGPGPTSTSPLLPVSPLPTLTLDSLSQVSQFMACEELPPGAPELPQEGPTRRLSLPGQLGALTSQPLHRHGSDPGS
T1 sequence (Q14416 19-872): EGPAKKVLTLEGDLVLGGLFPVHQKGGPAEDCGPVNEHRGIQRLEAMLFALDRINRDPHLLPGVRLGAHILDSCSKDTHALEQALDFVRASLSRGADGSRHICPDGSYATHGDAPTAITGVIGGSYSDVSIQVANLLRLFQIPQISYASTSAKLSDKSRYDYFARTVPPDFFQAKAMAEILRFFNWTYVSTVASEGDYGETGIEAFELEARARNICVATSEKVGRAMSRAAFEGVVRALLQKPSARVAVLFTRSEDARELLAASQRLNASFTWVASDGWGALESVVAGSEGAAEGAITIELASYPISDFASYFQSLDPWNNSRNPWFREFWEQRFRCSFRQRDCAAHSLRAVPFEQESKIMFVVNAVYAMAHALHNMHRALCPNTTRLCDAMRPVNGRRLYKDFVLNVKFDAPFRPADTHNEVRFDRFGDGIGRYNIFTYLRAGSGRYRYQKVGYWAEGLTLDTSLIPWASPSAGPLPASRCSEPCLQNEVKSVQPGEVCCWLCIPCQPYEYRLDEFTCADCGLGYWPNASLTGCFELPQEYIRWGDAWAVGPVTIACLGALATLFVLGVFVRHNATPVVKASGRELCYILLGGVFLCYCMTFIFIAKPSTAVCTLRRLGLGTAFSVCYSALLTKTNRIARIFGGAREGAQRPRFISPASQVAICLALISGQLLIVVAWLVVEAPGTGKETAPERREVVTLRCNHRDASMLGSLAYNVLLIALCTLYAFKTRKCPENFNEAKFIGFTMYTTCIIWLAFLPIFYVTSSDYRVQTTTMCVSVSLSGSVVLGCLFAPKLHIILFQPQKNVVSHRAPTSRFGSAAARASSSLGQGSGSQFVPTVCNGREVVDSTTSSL

Row | solubility at 24 h [1] [µM] | Emax [2] [%] | pEC50 [2] | melting point [°C] | Structure (SMILES) | pIC50 [3]
1 | 33.4 (≈ 12.5 µg/mL) | 127 | 7.19 | 143.5 | C[C@@H](C1CC1)N1Cc2cc(-c3cc(C(=O)N(C)C)no3)cc(Cl)c2C1=O [Example 1, 5-(7-chloro-2-((S)-1-cyclopropylethyl)-1-oxo-2,3-dihydro-1H-isoindolin-5-yl)-N,N-dimethylisoxazole-3-carboxamide] | < 4.48
2 | 6.82 (≈ 2.45 µg/mL) | 114 | 6.22 | 212.3 | CNC(=O)c1cc(-c2cc(Cl)c3c(c2)CN([C@@H](C)C2CC2)C3=O)on1 [Example 2, 5-(7-chloro-2-((S)-1-cyclopropylethyl)-1-oxo-2,3-dihydro-1H-isoindolin-5-yl)-N-methylisoxazole-3-carboxamide] | 4.68
3 | 21.4 (≈ 6.84 µg/mL) | 117 | 6.67 |  | CC(C)N1Cc2cc(-c3cc(C(N)=O)no3)cc(Cl)c2C1=O [Example 3] | < 4.48
4 | 9.53 (≈ 3.1 µg/mL) | 130 | 6.82 |  | Cc1cc(-c2cc(C(N)=O)no2)cc2c1C(=O)N([C@@H](C)C1CC1)C2 [Example 4, 5-[2-((S)-1-Cyclopropyl-ethyl)-7-methyl-1-oxo-2,3-dihydro-1H-isoindol-5-yl]-isoxazole-3-carboxylic acid amide] | < 4.48
5 | 19.2 (≈ 6.29 µg/mL) | 67 | 6.37 |  | Cc1cc(-c2cc(C(=O)N(C)C)no2)cc2c1C(=O)N(C(C)C)C2 [Example 5, 5-(2-Isopropyl-7-methyl-1-oxo-2,3-dihydro-1H-isoindol-5-yl)-isoxazole-3-carboxylic acid dimethylamide] | < 4.48
6 | 17.5 (≈ 5.94 µg/mL) | 110 | 6.29 |  | CNC(=O)c1cc(-c2cc(C)c3c(c2)CN([C@@H](C)C2CC2)C3=O)on1 [Example 6, 5-[2-((S)-1-Cyclopropyl-ethyl)-7-methyl-1-oxo-2,3-dihydro-1H-isoindol-5-yl]-isoxazole-3-carboxylic acid methylamide] | 4.64
7 | 16.6 (≈ 5.74 µg/mL) | 139 | 6.64 |  | C[C@@H](C1CC1)N1Cc2cc(-c3cc(C(N)=O)no3)cc(Cl)c2C1=O [Example 7, 5-[7-Chloro-2-((S)-1-cyclopropyl-ethyl)-1-oxo-2,3-dihydro-1H-isoindol-5-yl]-isoxazole-3-carboxylic acid amide] | < 4.48
8 | 31.1 (≈ 11 µg/mL) | 123 | 6.94 |  | Cc1cc(-c2cc(C(=O)N(C)C)no2)cc2c1C(=O)N([C@@H](C)C1CC1)C2 [Example 8, 5-[2-((S)-1-Cyclopropyl-ethyl)-7-methyl-1-oxo-2,3-dihydro-1H-isoindol-5-yl]-isoxazole-3-carboxylic acid dimethylamide] | < 4.48
9 | 3.57 (≈ 1.33 µg/mL) | 101 | 7.43 |  | CC(C)N1Cc2cc(-c3cc(C(=O)N4CCCC4)no3)cc(Cl)c2C1=O [Example 9, 7-Chloro-2-isopropyl-5-[3-(pyrrolidine-1-carbonyl)-isoxazol-5-yl]-2,3-dihydro-isoindol-1-one] | < 4.48
10 | 54.1 (≈ 20.4 µg/mL) | 103 | 6.21 |  | CC(C)N1Cc2cc(-c3cc(C(=O)N(C)CCO)no3)cc(Cl)c2C1=O [Example 10, 5-(7-Chloro-2-isopropyl-1-oxo-2,3-dihydro-1H-isoindol-5-yl)-isoxazole-3-carboxylic acid (2-hydroxy-ethyl)-methyl-amide] | < 4.48
11 | 4.35 (≈ 1.66 µg/mL) | 114 | 7.18 |  | Cc1cc(-c2cc(C(=O)N(C)C)no2)cc2c1C(=O)N([C@@H](C)C(F)(F)F)C2 [Example 11, 5-[7-M ethyl-1-oxo-2-((S)-2,2,2-trifluoro-1-methyl-ethyl)-2,3-dihydro-1H-isoindol-5-yl]-isoxazole-3-carboxylic acid dimethylamide] | < 4.48
12 | 11.2 (≈ 4.27 µg/mL) | 100 | 7.44 |  | Cc1cc(-c2cc(C(=O)N(C)C(C)C)no2)cc2c1C(=O)N([C@@H](C)C1CC1)C2 [Example 12, 5-[2-((S)-1-Cyclopropyl-ethyl)-7-methyl-1-oxo-2,3-dihydro-1H-isoindol-5-yl]-isoxazole-3-carboxylic acid isopropyl-methyl-amide] | < 4.48
13 | 153 (≈ 58.7 µg/mL) | 78 | 6.32 |  | Cc1cc(-c2cc(C(=O)N(C)CCO)no2)cc2c1C(=O)N([C@@H](C)C1CC1)C2 [Example 13, 5-[2-((S)-1-Cyclopropyl-ethyl)-7-methyl-1-oxo-2,3-dihydro-1H-isoindol-5-yl]-isoxazole-3-carboxylic acid (2-hydroxy-ethyl)-methyl-amide] | < 4.48
14 | 3.53 (≈ 1.37 µg/mL) | 97 | 7.22 |  | CC(C)N1Cc2cc(-c3cc(C(=O)NC4CCCC4)no3)cc(Cl)c2C1=O [Example 14, 5-(7-Chloro-2-isopropyl-1-oxo-2,3-dihydro-1H-isoindol-5-yl)-isoxazole-3-carboxylic acid cyclopentylamide] | 4.72
15 | 66.3 (≈ 25.8 µg/mL) | 100 | 6.28 |  | CC(C)N1Cc2cc(-c3cc(C(=O)N4CCOCC4)no3)cc(Cl)c2C1=O [Example 15, 7-Chloro-2-isopropyl-5-[3-(morpholine-4-carbonyl)-isoxazol-5-yl]-2,3-dihydro-isoindol-1-one] | < 4.48
16 | 435 (≈ 172 µg/mL) | 79 | 6.18 |  | Cc1cc(-c2cc(C(=O)N3CCNCC3)no2)cc2c1C(=O)N([C@@H](C)C1CC1)C2 [Example 16, 2-((S)-1-Cyclopropyl-ethyl)-7-methyl-5-[3-(piperazine-1-carbonyl)-isoxazol-5-yl]-2,3-dihydro-isoindol-1-one] | < 4.48
17 | 15.5 (≈ 6.23 µg/mL) | 139 | 7.08 |  | C[C@H](N1Cc2cc(-c3cc(C(=O)N(C)C)no3)cc(Cl)c2C1=O)C(F)(F)F [Example 17, 5-[7-Chloro-1-oxo-2-((S)-2,2,2-trifluoro-1-methyl-ethyl)-2,3-dihydro-1H-isoindol-5-yl]-isoxazole-3-carboxylic acid dimethylamide] | < 4.48
18 | 4.65 (≈ 1.87 µg/mL) | 109 | 7.25 |  | CC(C)N(C)C(=O)c1cc(-c2cc(Cl)c3c(c2)CN([C@@H](C)C2CC2)C3=O)on1 [Example 18, 5-[7-Chloro-2-((S)-1-cyclopropyl-ethyl)-1-oxo-2,3-dihydro-1H-isoindol-5-yl]-isoxazole-3-carboxylic acid isopropyl-methyl-amide] | < 4.48
19 | 273 (≈ 110 µg/mL) | 141 | 6.35 |  | C[C@@H](C1CC1)N1Cc2cc(-c3cc(C(=O)N(C)CCO)no3)cc(Cl)c2C1=O [Example 19, 5-[7-Chloro-2-((S)-1-cyclopropyl-ethyl)-1-oxo-2,3-dihydro-1H-isoindol-5-yl]-isoxazole-3-carboxylic acid (2-hydroxy-ethyl)-methyl-amide] | < 4.48
20 | 5.74 (≈ 2.39 µg/mL) | 122 | 7.07 |  | C[C@@H](C1CC1)N1Cc2cc(-c3cc(C(=O)N4CCOCC4)no3)cc(Cl)c2C1=O [Example 20, 7-Chloro-2-((S)-1-cyclopropyl-ethyl)-5-[3-(morpholine-4-carbonyl)-isoxazol-5-yl]-2,3-dihydro-isoindol-1-one] | < 4.48
21 | 9.32 (≈ 4.14 µg/mL) | 106 | 6.29 |  | C[C@H](N1Cc2cc(-c3cc(C(=O)N4CCOCC4)no3)cc(Cl)c2C1=O)C(F)(F)F [Example 21, 7-Chloro-5-[3-(morpholine-4-carbonyl)-isoxazol-5-yl]-2-((S)-2,2,2-trifluoro-1-methyl-ethyl)-2,3-dihydro-isoindol-1-one] | < 4.48
